Entries after “also recorded” stand apart in the source; their conditions may differ.
Key:
[1] = system: PTZ-induced seizures; experiment: Subcutaneous pentylenetetrazole (scPTZ)-induced acute seizure test; type: in vivo, mice; settings: for mortality: acute scPTZ-induced mortality test
Protocol: Subcutaneous Pentylenetetrazole (scPTZ) Seizure Model (Acute Seizures Model)
Anticonvulsant effects of isoxylitones using scPTZ acute seizure test was evaluated by administering three doses i.e. 15, 20, and 30 mg/kg to groups of six mice, at least 30-40 min before subcutaneous administration of convulsive doses of PTZ (90 mg/kg). After administering PTZ, the mice were isolated and placed separately in a clear plexiglass chamber and closely observed for an hour for the presence or absence of different types of seizure patterns i.e. onset of body twitches, threshold seizures, generalized seizures with loss of righting reflex, loss of righting reflex with tonic forelimb seizures, loss of righting reflex with tonic forelimb and hind limb seizures (Table 1). The protection from PTZ-induced mortality was also monitored within 24 hours. In all experiments, diazepam (7.5 mg/kg i.p.) was used as a drug control.
Subcutaneous Pentylenetetrazole-Induced Seizure Test (scPTZ-Induced Acute Seizures Model): […]

[2] = system: scPTZ-induced kindling; experiment: scPTZ-induced chemical kindling model of epileptogenesis; type: in vivo, mice; settings: PTZ 50 mg/kg on alternate days
Protocol: Once screened in the acute seizure model, we next evaluated the effect of test compound on the development on epilepsy process using chemical kindling model of NMRI mice. […] The kindling was induced according to the modified method of De Sarro [23]. Each treatment group consists of 12 male NMRI mice ranging from 20-25 g. All the groups except normal control were given sub-convulsive dose of PTZ i.e., 50 mg/kg subcutaneously once on alternate day between 9:30-11:00 am. The normal control and drug control groups received daily intraperitoneal dose of saline (0.5 mL of 0.9% NaCl) and diazepam (7.5 mg/kg) respectively. Likewise, the test group was administered with the isoxylitones mixture (30 mg/kg, i.p.) once daily. On the day of PTZ administration, the treatment of saline, diazepam or isoxylitones were given 30-40 minutes before the PTZ. After each PTZ injection, animals were placed in observation chambers for 1 hour, and behavioral seizure activity was rated. Animals were scored according to a pre-validated scoring scale for the severity of the seizure activity they show. Seizure patterns during the gradual development of kindling are classified into five distinct behavioral stages as shown in the Table 1. The cumulative kindling score was then calculated and the experiments were terminated once the PTZ-control group reached the score 5. […]

[3] = system: BDNF protein expression; experiment: BDNF immunohistochemistry in brain samples of chemically kindled mice; type: in vivo; settings: for BDNF immunoreactivity in hippocampus and cortex: vs PTZ kindled group; for cumulative BDNF immunoreactivity (ImageJ): vs PTZ kindling
Protocol: Brain samples from chemically kindled mice (as described above) were collected immediately after the last treatment of animals with PTZ. Mice were deeply anesthetized and transcardially perfused with ice-cold 50 mL solution containing phosphate buffer saline (PBS) and heparin [1 mL (5000 I.U.) of heparin added for 500 mL of PBS]. Brains were removed from cranial cavity and were gently rinsed in cold PBS. After washing, they were fixed in ice cold 4% paraformaldehyde solution for 24 hr at 4° C. These samples were then placed in a cryoprotectant i.e. 30% sucrose in PBS until they sank to the bottom of the container. The samples were subsequently stored at −80° C. until further processing. Cryostat sagittal sections were prepared using cryostat (Thermo Electron Corporation, UK), frozen brain sections of 30-μm thickness were cut at −20° C. and collected directly on poly-lysine coated slides. At the time of processing, the cryosections were kept overnight in a humid chamber at room temperature containing PBS buffer. […] On the following day, the sections were re-hydrated by rinsing three times (5 min/rinse) with PBS buffer, followed by incubation in blocking solution (pre-filtered with syringe filter of […] size, consisting of 2% bovine serum albumin (BSA), 2% normal goat serum and 0.1% Tween-20) for 30 min at 37° C. For BDNF IHC, the sections were incubated overnight at 4° C. with the BDNF (N-20) primary antibody sc-546 rabbit IgG (Santa Cruz Biotechnology Inc., USA). Following overnight incubation in the primary antibody, sections were washed three times in PBS and then were incubated with secondary antibody, i.e. Alexa Fluor® 546 goat anti-rabbit IgG secondary antibody (1:100 dilution) from Invitrogen (Life Technologies, NY, USA) for 30 min at 37° C. in the dark, followed by a final washing step with PBS. Negative control slides were prepared without primary antibody to rule out the non-specific tissue binding of antibodies. The stained sections were observed under fluorescent microscope (Nikon ECLIPSE TE2000-S).
The schematic diagrams of brain sections adapted from the mouse brain atlas were used as a visual guide for determining the sub-region boundaries. The image processing program ImageJ (National Institutes of Health, MD, USA) was used to analyze the images. This software helps in multiple imaging system data comparisons, taking density (densitometry) in consideration. For each image, background density was determined and subtracted; the remaining particles were considered to represent BDNF expression. Data were obtained from two sections per […] (n=12 animals per group) and presented as means±S.E.M BDNF immunoreactivity in the amygdala, cortex, dorsal hippocampus and thalamus were centered approximately around 3.6 mm posterior to bregma. Within the hippocampus region, measurements were performed over the layer extending from sub-regions CA1-CA3.

[4] = system: mice; experiment: Inverted screen acute neurotoxicity test; type: in vivo; settings: 15, 20, 30, 50, 100 mg/kg i.p.; 5, 30, 60, 120 minutes
Protocol: The neurotoxic manifestation of isoxylitone was determined by inverted screen acute neurotoxicity test developed by Coughenour et al. in 1977. The apparatus consisted of six 13 cm square platforms of 0.6 cm wire mesh supported by metal bars mounted on a metal rod. The rod was supported at both ends and was inverted through an arc of 180°. Mice were pretested on the apparatus the day preceding the experiment, and those failing the task were not used for the subsequent drug test. Testing was carried out at 5, 30, 60 and 120 minutes following i.p. administration of 15 mg/kg, 20 mg/kg, 30 mg/kg, 50 mg/kg and 100 mg/kg of isoxylitone in groups of 6 mice. Mice unable to climb to an upright position for 1 min duration were rated as failures.

[5] = system: mice; experiment: Behavioral analysis (Turner scoring); type: in vivo; settings: 30 mg/kg, 50 mg/kg and 100 mg/kg
Protocol: The behavioral analysis was performed adopting the modified procedure as described by Turner, 1972. The effects were recorded using a scoring system (scores were allocated according to the intensity of the symptoms from 0-4) as described by Turner i.e. for stereotype behavior 0: no effect; 1: intermittent; 2: continues 3: intense; 4: severe and for spontaneous activity 0: reduced activity; and 4: increased activity. Animals were transferred into individual cages to allow them to acclimatize to the new environment prior to the experiment.
Blind-testing was employed i.e., the experimenter conducting this study was blinded to the treatment given to the animals in order to avoid any biased interpretations.

[6] = system: mice; experiment: Acute toxicity (Lorke's test) with gross behavioral observation; type: in vivo
Protocol: The isoxylitone was tested for acute toxicity (LD50) using Lorke's test. This method provides the acute toxicity data with the least consumption of animals i.e. initially only 12 animals are required; on obtaining the dose causing the death in 50% animals further three more animals is used at the same dose to get the data statistically significant. Briefly, animals were given different doses of isoxylitone i.e., 50 mg/kg, 75 mg/kg, 100 mg/kg, 500 mg/kg and 1000 mg/kg. After 24 and 48 hours, the maximum dose that had not induced mortality was considered as the maximum non-fatal dose. LD50 values and the corresponding confidence intervals were determined by the Litchfield and Wilcoxon methods (SPSS, version, USA). Data were expressed as mean values±SEM and tested with ANOVA and Tukey-Kramer tests.
They were observed continuously for 2 hours after administration of the test compounds and then every 30 minutes for next 3 hours and finally after 24 hours. The CNS stimulation was judged by the following signs and symptoms:
Locomotor activity, ataxia, clonic & tonic convulsions, sedation, catalepsy, crouching, lacrimation, salivation or any other signs which deviate from the normal behavior of the animal under observation.

[7] = system: SD rats; experiment: Repeated daily dosing toxicity study, 15, 30 and 90 days; type: in vivo; settings: 30 mg/kg daily
Protocol: The effective dose of isoxylitones i.e. 30 mg/kg was used in this study. The test was performed in SD rats. The animals divided into three groups and were daily administered with isoxylitones. The first group was sacrificed at the end of 15 days. The second group was sacrificed after 30 days and third group was sacrificed after 90 days. […] At the end, blood was taken via cardiac puncture for biochemistry. Gross anatomical observations were also made for organs as liver, spleen, kidney, heart, and lung and spleen and to examine the organ abnormalities.
The serum levels total bilirubin, GPT, GOT, alkaline phosphatase, and LDH was estimated.

[8] = system: c-Fos protein and mRNA expression; experiment: c-Fos protein and mRNA expression in brain samples of kindled mice; type: in vivo; settings: 30 mg/kg; compared to PTZ-kindled control animals
Source text: Recently we have evaluated the effects of novel anticonvulsant isomeric compounds isoxylitones on the c-Fos protein and mRNA expression in the brain samples of kindled mice and compared it with the normal and untreated kindled groups.

[9] = diazepam 7.5 mg/kg i.p. before PTZ 90 mg/kg s.c.
[10] = isoxylitones 15 mg/kg i.p. before PTZ 90 mg/kg s.c.
[11] = isoxylitones 20 mg/kg i.p. before PTZ 90 mg/kg s.c.
[12] = isoxylitones 30 mg/kg i.p. before PTZ 90 mg/kg s.c.

CN1C(=O)CN=C(c2ccccc2)c2cc(Cl)ccc21 [Diazepam, diazepam, reference compound]
Hind Limb Tonic Extension (HLTE) [1, 9]: 0 s
Mortality protection [1, 9]: 100%
Onset of jerks [1, 9]: 850 ± 20 s
Rearing & falling [1, 9]: 0 s
development of kindling (seizure pattern) ([2]; diazepam 7.5 mg/kg daily): did not exhibit any seizure pattern till the end of the kindling protocol
BDNF immunoreactivity in hippocampus and cortex ([3]; diazepam 7.5 mg/kg): reduced the levels to controls; also recorded: markedly reduced the immunoreactivity
cumulative BDNF immunoreactivity (ImageJ) ([3]; diazepam 7.5 mg/kg): significantly suppressed

isoxylitones
protection from PTZ-induced loss of righting reflex with tonic-forelimb and tonic hind-limb seizures ([1]; 30 mg/kg): 100%
prevention of PTZ-induced myoclonic twitches ([1]; 15 and 20 mg/kg): effectively prevent PTZ-induced myoclonic twitches
protection from PTZ-induced seizure threshold ([1]; 15 and 20 mg/kg): unable to provide complete protection
anticonvulsant activity in vivo models ([1]; compounds shown in FIG. 1): strong anticonvulsant activity
Onset of jerks ([1]; isoxylitones 15 mg/kg i.p. 40-50 min before PTZ 90 mg/kg s.c., mean ± SEM): 440 ± 55 s
Hind Limb Tonic Extension (HLTE) [1, 10]: 1260 ± 20 s
Mortality protection [1, 10]: 66.7%
Rearing & falling [1, 10]: 990 ± 33 s
mortality ([1]; isoxylitones 15 mg/kg): 33.3%
Hind Limb Tonic Extension (HLTE) [1, 11]: 0 s
Mortality protection [1, 11]: 100%
Onset of jerks [1, 11]: 580 ± 21 s
Rearing & falling [1, 11]: 1120 ± 40 s
mortality ([1]; isoxylitones 20 mg/kg): 20.8%
Hind Limb Tonic Extension (HLTE) [1, 12]: 0 s
Mortality protection [1, 12]: 100%
Onset of jerks [1, 12]: 900 ± 150 s
Rearing & falling [1, 12]: 0 s
mortality ([1]; isoxylitones 30 mg/kg): 0%
protection from different seizure patterns of PTZ-induced seizures (twitches, body jerks, clonus, generalized seizure) ([1]; isoxylitones given prior to PTZ, 15, 20, 30 mg/kg): dose-related protection
development of kindling (seizure score) ([2]; isoxylitones 30 mg/kg i.p. once daily, 18 doses, 34 days): did not exhibit seizure score until the end of the kindling experiment; also recorded: complete inhibition in the development of kindling
BDNF immunoreactivity in hippocampus and cortex ([3]; isoxylitones 30 mg/kg): returned the enhanced BDNF immunoreactivity from PTZ kindling to the normal control levels
BDNF immunoreactivity in hippocampus and cortex ([3]; isoxylitones 30 mg/kg, listed as isoxylitones): returned the BDNF levels to normal levels
cumulative BDNF immunoreactivity (ImageJ) ([3]; isoxylitones 30 mg/kg): significantly suppressed
acute neurotoxicity (motor function) [4]: did not show sign of acute neurotoxicity
spontaneous motor activity and behavioral signs (ataxia, abdominal contractions, emesis, hyper-excitability, hyper-locomotion, twitches) [5]: no alteration in the spontaneous motor activity
signs of toxicity / gross behavioral effects ([6]; 250 mg/kg, approximately 20 minutes after injection): mild cramps and abdominal stretching
signs of toxicity / gross behavioral effects ([6]; 500 mg/kg): signs of discomfort and mild toxicity; also recorded: Ataxia, complete sedation and drowsiness
signs of toxicity / gross behavioral effects ([6]; 1000 mg/kg): complete ataxia and sedation
animals showing signs of toxicity or altered behavior ([6]; 50 and 100 mg/kg, over 24 hours): None of the animals
mortality or morbidity [7]: No mortality or morbidity
c-Fos expression [8]: significant reduction of c-Fos expression

From patent US20150148417A1, “SYNTHESIS AND BIOLOGICAL STUDIES OF AN ISOMERIC MIXTURE OF (E/Z) ISOXYLITONES AND ITS ANALOGUES” (priority 2013, published 2015)
